How the values were obtained:
[1] = target: T1, TLR2 (Mus musculus, UniProt Q9QUN7); assay: TLR2 functional assay, cytokine release from RAW 264.7 mouse macrophage cell line; assay type: cell-based; conditions: average of all runs
T1 construct: endogenous in cells; host or cells: RAW 264.7
Experimental: Cells of the immune system respond to TLR agonists in part by secreting cytokines. Functional assays for TLR2 agonists measure cytokine release from purified immune cells or immortalized cell lines derived from immune cells. Cytokine release is measured by standard ELISA approaches or multiplexed analysis using the Meso Scale Discovery (MSD) platform.
Purified primary human peripheral blood mononuclear cells or RAW 264.7 mouse macrophage cell line cells are plated at approximately 40,000 cells per well. Cells are treated with agonist compounds and assays 6-24 hours post-treatment for cytokines released into the cell culture media.
Following assay measurements utilizing either HEK-Blue detection or cytokine release, all data is analyzed with the GraphPad Prism8 statistical package to determine EC50, binding and activity metrics for the TLR2 modulators.
Numerous cell lines derived from various cell types can respond to TLR2 agonists with stereotyped cytokine and chemokine secretion. In particular, cell lines derived from macrophages respond robustly to TLR2 agonists by secreting a wide array of cytokines, including (but not limited to) TNF-alpha, IL-1, IL-10 and IL-12. The human monocytic cell line THP-1, the mouse macrophage line RAW-264.7, and the rat macrophage line NR8383 were used. For each assay, the respective cell lines were plated into 96-well plates overnight and then treated the following day with various TLR2-engaging compounds at varying concentrations. The next day, supernatants were collected and assayed by multiplex immunodetection for cytokines released (MSD detection kits for respective species).
Data provided in Table 5 is generated using protocols described in Example 45 and 46.

[2] = target: TLR2 (Homo sapiens, UniProt O60603); assay: TLR2 agonist screening assay, HEK-Blue TLR2 reporter cell line (NF-kB-driven SEAP, absorbance at 600 nm); assay type: cell-based; design: host or cells: HEK-293 (HEK-Blue TLR2 reporter cell line); conditions: HEK-Blue TLR2 reporter cells, agonist mode; average of all runs (Table 4)
TLR2 (Homo sapiens, UniProt O60603), sequence (O60603 21-784): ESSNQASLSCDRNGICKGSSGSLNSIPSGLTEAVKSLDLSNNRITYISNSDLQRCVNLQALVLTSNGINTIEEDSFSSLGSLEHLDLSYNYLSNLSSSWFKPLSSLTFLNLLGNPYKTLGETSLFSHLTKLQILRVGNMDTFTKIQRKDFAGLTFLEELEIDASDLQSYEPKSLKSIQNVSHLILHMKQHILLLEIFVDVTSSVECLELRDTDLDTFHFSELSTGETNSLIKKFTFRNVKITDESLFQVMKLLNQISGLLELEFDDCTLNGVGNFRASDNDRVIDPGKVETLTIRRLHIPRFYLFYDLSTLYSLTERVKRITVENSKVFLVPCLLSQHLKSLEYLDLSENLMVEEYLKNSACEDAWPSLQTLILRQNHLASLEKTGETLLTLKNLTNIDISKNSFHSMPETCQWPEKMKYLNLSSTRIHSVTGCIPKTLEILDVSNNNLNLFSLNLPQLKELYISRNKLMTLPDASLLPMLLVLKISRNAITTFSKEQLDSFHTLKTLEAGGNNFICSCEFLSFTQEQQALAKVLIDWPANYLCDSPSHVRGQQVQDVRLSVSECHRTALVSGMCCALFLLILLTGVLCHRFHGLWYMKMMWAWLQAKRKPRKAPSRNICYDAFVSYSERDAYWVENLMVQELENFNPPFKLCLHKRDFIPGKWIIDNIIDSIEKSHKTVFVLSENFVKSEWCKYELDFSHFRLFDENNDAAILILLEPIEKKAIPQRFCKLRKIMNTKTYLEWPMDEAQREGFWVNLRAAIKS
Method in brief: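 HEK-293 cells expressing TLR2 with NF-kB-driven SEAP were plated at 40,000 per well. After 16-24 h, they were treated overnight with diluted agonists in detection medium (1% DMSO final). Absorbance at 600 nm was read, and EC50 values were fitted.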

T1 sequence (Q9QUN7 25-784): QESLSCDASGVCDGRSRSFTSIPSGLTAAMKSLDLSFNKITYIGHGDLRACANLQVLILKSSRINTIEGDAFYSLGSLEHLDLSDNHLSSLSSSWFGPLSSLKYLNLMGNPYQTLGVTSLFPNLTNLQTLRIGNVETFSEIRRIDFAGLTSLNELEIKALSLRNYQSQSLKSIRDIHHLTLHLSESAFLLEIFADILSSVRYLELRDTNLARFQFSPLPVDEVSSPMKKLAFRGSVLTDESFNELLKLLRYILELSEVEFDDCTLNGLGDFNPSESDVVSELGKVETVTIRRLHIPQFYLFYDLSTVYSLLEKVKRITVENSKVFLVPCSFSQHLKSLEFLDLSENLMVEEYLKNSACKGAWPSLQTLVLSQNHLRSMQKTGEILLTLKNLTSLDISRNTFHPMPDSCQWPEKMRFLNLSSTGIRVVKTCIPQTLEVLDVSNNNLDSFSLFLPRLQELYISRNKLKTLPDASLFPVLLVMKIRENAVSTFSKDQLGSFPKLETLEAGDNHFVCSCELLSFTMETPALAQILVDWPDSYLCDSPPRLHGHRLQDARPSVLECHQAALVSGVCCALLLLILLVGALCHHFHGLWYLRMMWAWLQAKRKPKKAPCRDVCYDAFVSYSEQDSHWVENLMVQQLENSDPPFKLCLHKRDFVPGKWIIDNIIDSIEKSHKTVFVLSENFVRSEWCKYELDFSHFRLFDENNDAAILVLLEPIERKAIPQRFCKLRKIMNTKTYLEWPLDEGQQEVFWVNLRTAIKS

SMILES	EC50 [1]	EC50 [2]
CCCCCCCCCCCNC(=O)N[C@H]1CN(C(=O)c2ccc(C(=O)N3C[C@@H](C(=O)N[C@H]4C[C@@H]4c4ccccc4)[C@H](C(=O)N[C@H]4C[C@@H]4c4ccccc4)C3)cc2)C[C@@H]1OC [Compound 199, (3S,4S)-1-(4-((3S,4S)-3-methoxy-4-(3-undecylureido)pyrrolidine-1-carbonyl)benzoyl)-N3,N4-bis((1S,2R)-2-phenylcyclopropyl)pyrrolidine-3,4-dicarboxamide]	> 1 µM	0.0001 to 0.05 µM
CCCCCCCCNC(=O)[C@H](CNC(=O)c1ccc(C(=O)N2C[C@@H](C(=O)N[C@H]3C[C@@H]3c3ccccc3)[C@H](C(=O)N[C@H]3C[C@@H]3c3ccccc3)C2)cc1)NC(=O)CCCCCCCC [Compound 197, (3S,4S)-1-(4-(((S)-2-nonanamido-3-(octylamino)-3-oxopropyl)carbamoyl)benzoyl)-N3,N4-bis((1S,2R)-2-phenylcyclopropyl)pyrrolidine-3,4-dicarboxamide]	0.351 to 1 µM	0.0001 to 0.05 µM
CCCCCCCC(=O)N[C@@H](Cn1cc(-c2ccc(C(=O)N3C[C@@H](C(=O)N[C@H]4C[C@@H]4c4ccccc4)[C@H](C(=O)N[C@H]4C[C@@H]4c4ccccc4)C3)cc2)nn1)C(=O)NCCCCCC [Compound 219, (3S,4S)-1-(4-(1-((S)-3-(hexylamino)-2-octanamido-3-oxopropyl)-1H-1,2,3-triazol-4-yl)benzoyl)-N3,N4-bis((1S,2R)-2-phenylcyclopropyl)pyrrolidine-3,4-dicarboxamide]	0.0001 to 0.05 µM	0.0001 to 0.05 µM
CCCCCCCCCCCCCOC(=O)N[C@H]1CN(C(=O)c2ccc(C(=O)N3C[C@@H](C(=O)N[C@H]4C[C@@H]4c4ccccc4)[C@H](C(=O)N[C@H]4C[C@@H]4c4ccccc4)C3)cc2)C[C@@H]1OC [Compound 217, tridecyl ((3S,4S)-1-(4-((3S,4S)-3,4-bis(((1S,2R)-2-phenylcyclopropyl)carbamoyl)pyrrolidine-1-carbonyl)benzoyl)-4-methoxypyrrolidin-3-yl)carbamate]	> 1 µM	0.0001 to 0.05 µM
CCCCCCCCCCCCNC(=O)N[C@H]1CN(C(=O)c2ccc(C(=O)N3C[C@@H](C(=O)N[C@H]4C[C@@H]4c4ccccc4)[C@H](C(=O)N[C@H]4C[C@@H]4c4ccccc4)C3)cc2)C[C@@H]1OC [Compound 188, (3S,4S)-1-(4-((3S,4S)-3-(3-dodecylureido)-4-methoxypyrrolidine-1-carbonyl)benzoyl)-N3,N4-bis((1S,2R)-2-phenylcyclopropyl)pyrrolidine-3,4-dicarboxamide]	0.351 to 1 µM	0.0001 to 0.05 µM
CCCCCCCCCCCCCNC(=O)N[C@H]1CN(C(=O)c2ccc(C(=O)N3C[C@@H](C(=O)N[C@H]4C[C@@H]4c4ccccc4)[C@H](C(=O)N[C@H]4C[C@@H]4c4ccccc4)C3)cc2)C[C@@H]1OC [Compound 134, (3S,4S)-1-(4-((3S,4S)-3-methoxy-4-(3-tridecylureido)pyrrolidine-1-carbonyl)benzoyl)-N3,N4-bis((1S,2R)-2-phenylcyclopropyl)pyrrolidine-3,4-dicarboxamide]	0.351 to 1 µM	0.0001 to 0.05 µM
CCCCCCCCCCCCCNC(=O)N[C@H]1CN(C(=O)c2ccc(C(=O)N3C[C@@H](C(=O)N[C@H]4C[C@@H]4c4ccccc4)[C@H](C(=O)N[C@H]4C[C@@H]4c4ccccc4)C3)cc2)C[C@H]1OC [Compound 210, (3S,4S)-1-(4-((3R,4S)-3-methoxy-4-(3-tridecylureido)pyrrolidine-1-carbonyl)benzoyl)-N3,N4-bis((1S,2R)-2-phenylcyclopropyl)pyrrolidine-3,4-dicarboxamide]	> 1 µM	0.0001 to 0.05 µM
CCCCCCCCCC(=O)N[C@@H](CNC(=O)c1ccc(C(=O)N2C[C@@H](C(=O)N[C@H]3C[C@@H]3c3ccccc3)[C@H](C(=O)N[C@H]3C[C@@H]3c3ccccc3)C2)cc1)C(=O)NCCCCCC [Compound 175, (3S,4S)-1-(4-(((S)-2-decanamido-3-(hexylamino)-3-oxopropyl)carbamoyl)benzoyl)-N3,N4-bis ((1S,2R)-2-phenylcyclopropyl) pyrrolidine-3,4-dicarboxamide]	0.051 to 0.35 µM	0.0001 to 0.05 µM
CCCCCCCCCCCCCNC(=O)N[C@@H]1CCCN(C(=O)c2ccc(C(=O)N3C[C@@H](C(=O)N[C@H]4C[C@@H]4c4ccccc4)[C@H](C(=O)N[C@H]4C[C@@H]4c4ccccc4)C3)cc2)C1 [Compound 205, (3S,4S)—N3,N4-bis((1S,2R)-2-phenylcyclopropyl)-1-(4-((R)-3-(3-tridecylureido)piperidine-1-carbonyl)benzoyl)pyrrolidine-3,4-dicarboxamide]	> 1 µM	0.0001 to 0.05 µM
CCCCCCNC(=O)[C@H](Cn1cnc(-c2ccc(C(=O)N3C[C@@H](C(=O)N[C@H]4C[C@@H]4c4ccccc4)[C@H](C(=O)N[C@H]4C[C@@H]4c4ccccc4)C3)cc2)c1)NC(=O)CCCCCC [Compound 214, (3S,4S)-1-(4-(1-((S)-2-heptanamido-3-(hexylamino)-3-oxopropyl)-1H-imidazol-4-yl)benzoyl)-N3,N4-bis((1S,2R)-2-phenylcyclopropyl)pyrrolidine-3,4-dicarboxamide]	0.0001 to 0.05 µM	0.051 to 0.35 µM
CCCCCCCCC(=O)N[C@@H](CNC(=O)c1ccc(C(=O)N2C[C@@H](C(=O)N[C@H]3C[C@@H]3c3ccccc3)[C@H](C(=O)N[C@H]3C[C@@H]3c3ccccc3)C2)cc1)C(=O)NCCCCCC [Compound 140, (3S,4S)-1-(4-(((S)-3-(hexylamino)-2-nonanamido-3-oxopropyl)carbamoyl)benzoyl)-N3,N4-bis((1S,2R)-2-phenylcyclopropyl)pyrrolidine-3,4-dicarboxamide]	0.051 to 0.35 µM	0.0001 to 0.05 µM
CCCCCCNC(=O)[C@H](Cn1cc(-c2ccc(C(=O)N3C[C@@H](C(=O)N[C@H]4C[C@@H]4c4ccccc4)[C@H](C(=O)N[C@H]4C[C@@H]4c4ccccc4)C3)cc2)nn1)NC(=O)CCCCCC [Compound 185, (3S,4S)-1-(4-(1-((S)-2-heptanamido-3-(hexylamino)-3-oxopropyl)-1H-1,2,3-triazol-4-yl)benzoyl)-N3,N4-bis((1S,2R)-2-phenylcyclopropyl)pyrrolidine-3,4-dicarboxamide]	0.0001 to 0.05 µM	0.0001 to 0.05 µM
O=C(N[C@@H](CNC(=O)c1ccc(C(=O)N2C[C@@H](C(=O)N[C@H]3C[C@@H]3c3ccccc3)[C@H](C(=O)N[C@H]3C[C@@H]3c3ccccc3)C2)cc1)C(=O)N[C@H]1C[C@@H]1c1ccccc1)N[C@H]1C[C@@H]1c1ccccc1 [Compound 223, (3S,4S)-1-(4-(((S)-3-oxo-3-(((1S,2R)-2-phenylcyclopropyl)amino)-2-(3-((1S,2R)-2-phenylcyclopropyl)ureido)propyl)carbamoyl)benzoyl)-N3,N4-bis((1S,2R)-2-phenylcyclopropyl)pyrrolidine-3,4-dicarboxamide]	0.351 to 1 µM	> 1 µM
CCCCCCCCCOC(=O)N[C@@H](CNC(=O)c1ccc(C(=O)N2C[C@@H](C(=O)N[C@H]3C[C@@H]3c3ccccc3)[C@H](C(=O)N[C@H]3C[C@@H]3c3ccccc3)C2)cc1)C(=O)NCCCCCC [Compound 229, nonyl ((S)-3-(4-((3S,4S)-3,4-bis(((1S,2R)-2-phenylcyclopropyl)carbamoyl)pyrrolidine-1-carbonyl)benzamido)-1-(hexylamino)-1-oxopropan-2-yl)carbamate]	> 1 µM	0.0001 to 0.05 µM

From US11951094B2, “TLR2 modulator compounds, pharmaceutical compositions and uses thereof” (Axial Therapeutics, Inc., priority 2020, dated 2024)
